Data reported in patent US9079913B2, “Spiro-oxindole MDM2 antagonists” (The Regents of the University of Michigan, priority 2009, dated 2015).
Where two headings read alike, the source gives them in different places.

Columns and labels:
[1] = test system: Isogenic HCT-116 colon cancer cell lines; test: cells; assay type: cell-based;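 also: cells grown in 96-well plates in McCoy's 5A medium with 10% FBS, exposed to compound for 4 days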
Description: Cells were seeded in 96-well flat bottom cell culture plates at a density of 2−3×10^3 cells/well with compounds and incubated for 4 days.

[2] = test system: cancer cell lines with wild-type p53 / mutated or deleted p53 (ATCC); test: Cell growth assay (WST-8), other cancer cell lines; assay type: cell-based
[3] = molecular target: recombinant human His-tagged MDM2 protein (residues 1-118) (Homo sapiens (Human), UniProt Q00987); test: Fluorescence-polarization MDM2 binding assay;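 also: fluorescence polarization read after three hours of incubation in potassium phosphate buffer containing bovine gamma globulin and Triton X-100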
recombinant human His-tagged MDM2 protein (residues 1-118), sequence (Q00987 1-118): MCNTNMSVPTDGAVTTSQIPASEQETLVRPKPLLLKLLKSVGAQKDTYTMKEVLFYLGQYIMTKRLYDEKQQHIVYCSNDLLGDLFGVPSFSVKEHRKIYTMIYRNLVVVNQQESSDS

[4] = Homo sapiens, HCT-116, read-out: HCT-116 (p53-/-) IC50, Table 19A, HCT-116 p53-/-, cell growth
[5] = Homo sapiens, HCT-116, read-out: HCT-116 (p53 wild-type) IC50, Table 19A, HCT-116 p53 wild-type, cell growth
[6] = Homo sapiens, LNCaP, Table 19A, LNCAP cells, p53 wild-type, cell growth, read-out: LNCAP (p53 wild-type) IC50
[7] = Homo sapiens, PC-3, Table 19A, PC-3 cells, deleted p53, cell growth, read-out: PC-3 (deleted p53) IC50
[8] = Table 19A, FP binding assay, read-out: MDM2 IC50
[9] = Table 19B, read-out: Binding affinities to MDM2 protein as determined by FP based assay IC50
[10] = Homo sapiens, SJSA-1, Table 19A, SJSA-1 cells, p53 wild-type, cell growth, read-out: SJSA-1 (p53 wild-type) IC50
[11] = Homo sapiens, HCT-116, read-out: Cell growth inhibition using WST assay, HCT116 p53KO IC50, Table 19C, HCT116 p53KO
[12] = Homo sapiens, HCT-116, read-out: Cell growth inhibition using WST assay, HCT116 p53WT IC50, Table 19C, HCT116 p53WT
[13] = Homo sapiens, LNCaP, Table 19C, LNCaP cells, read-out: Cell growth inhibition using WST assay, LNCaP IC50
[14] = Homo sapiens, PC-3, Table 19C, PC3 cells, read-out: Cell growth inhibition using WST assay, PC3 IC50
[15] = Table 19C, read-out: Bidning affinities to MDM2 as determined using FP assay IC50
[16] = Homo sapiens, HCT-116, read-out: Inhibition of cell growth IC50, HCT116 p53 KO, Table 19B, HCT116 p53 KO
[17] = Homo sapiens, HCT-116, read-out: Inhibition of cell growth IC50, HCT116 p53 WT, Table 19B, HCT116 p53 WT
[18] = Homo sapiens, LNCaP, Table 19B, LNCaP cells, read-out: Inhibition of cell growth IC50, LNCaP
[19] = Homo sapiens, PC-3, Table 19B, PC3 cells, read-out: Inhibition of cell growth IC50, PC3

SMILES: CN(C)CC(=O)N1CCN(C(=O)[C@@H]2N[C@H](CC(C)(C)C)[C@]3(C(=O)Nc4cc(Cl)c(F)cc43)[C@H]2c2cccc(Cl)c2)CC1 [MI-744]
- IC50 [1, 4]: 5.7 ± 3.4 µM
- IC50 [1, 5]: 2.4 ± 0.2 µM
- IC50 [2, 6]: 1.7 ± 0.1 µM
- IC50 [2, 7]: 7.7 ± 3.1 µM
- IC50 [3, 8]: < 10 µM

SMILES: CC(C)(C)C[C@H]1N[C@@H](C(=O)NCC[C@H]2CC[C@@H](O)C2)[C@H](c2cccc(Cl)c2F)[C@@]12C(=O)Nc1cc(Cl)ccc12 [MI-754]
- IC50 ([1]; read-out: Inhibition of cell growth IC50, HCT116 p53 KO, Table 19B, HCT116 p53 KO): > 5 µM
- IC50 ([1]; read-out: Inhibition of cell growth IC50, HCT116 p53 WT, Table 19B, HCT116 p53 WT): < 3 µM
- IC50 ([2]; Table 19B, LNCaP cells, read-out: Inhibition of cell growth IC50, LNCaP): < 3 µM
- IC50 ([2]; Table 19B, PC3 cells, read-out: Inhibition of cell growth IC50, PC3): > 5 µM
- IC50 [3, 9]: < 1 µM

SMILES: CC(C)(C)C[C@H]1N[C@@H](C(=O)NC2CN(CC(C)(C)O)C2)[C@H](c2cccc(Cl)c2F)[C@@]12C(=O)Nc1cc(Cl)ccc12 [MI-909]
- IC50 [1, 4]: > 5 µM
- IC50 [1, 5]: < 3 µM
- IC50 [2, 6]: < 3 µM
- IC50 [2, 7]: > 5 µM
- IC50 [2, 10]: < 3 µM
- IC50 [3, 8]: < 1 µM

SMILES: CNC[C@@H](O)CCNC(=O)[C@@H]1N[C@H](CC(C)(C)C)[C@]2(C(=O)Nc3cc(Cl)c(F)cc32)[C@H]1c1ccc(F)c(Cl)c1 [MI-319-30]
- IC50 [1, 11]: > 10 µM
- IC50 [1, 12]: > 10 µM
- IC50 [2, 13]: > 5 µM
- IC50 [2, 14]: > 10 µM
- IC50 [3, 15]: < 5 µM

SMILES: CCCCC(C)(C)C[C@H]1N[C@@H](C(=O)NCC[C@H](O)CO)[C@H](c2cccc(Cl)c2)[C@@]12C(=O)Nc1cc(Cl)c(F)cc12 [MI-724]
- IC50 [1, 16]: 5.3 ± 0.3 µM
- IC50 [1, 17]: 1.1 ± 0.5 µM
- IC50 [2, 18]: 1.2 ± 0.4 µM
- IC50 [2, 19]: 3.9 ± 0.2 µM
- IC50 [3, 9]: < 1 µM

SMILES: O=C(NCC[C@H](O)CO)[C@@H]1N[C@H](CCCc2ccccc2)[C@]2(C(=O)Nc3cc(Cl)c(F)cc32)[C@H]1c1cccc(Cl)c1 [MI-704]
- IC50 [1, 16]: 12.1 ± 1 µM
- IC50 [1, 17]: 3 ± 0.9 µM
- IC50 [2, 18]: 6.8 ± 0.2 µM
- IC50 [2, 19]: 18 ± 5.1 µM
- IC50 [3, 9]: > 1 µM

SMILES: O=C(NCC[C@H](O)CO)[C@@H]1N[C@H](CC2CCCCC2)[C@]2(C(=O)Nc3cc(Cl)c(F)cc32)[C@H]1c1cccc(Cl)c1 [MI-716A]
- IC50 [1, 16]: > 10 µM
- IC50 [1, 17]: 1 ± 0.5 µM
- IC50 [2, 18]: 1.1 ± 0.5 µM
- IC50 [2, 19]: 11.5 ± 0.5 µM
- IC50 [3, 9]: < 3 µM

SMILES: CC(=O)OC(C)(C)C(=O)N1CC(NC(=O)[C@@H]2N[C@H](CC(C)(C)C)[C@]3(C(=O)Nc4cc(Cl)ccc43)[C@H]2c2cccc(Cl)c2F)C1 [MI-914]
- IC50 [1, 4]: > 10 µM
- IC50 [1, 5]: < 3 µM
- IC50 [2, 6]: < 3 µM
- IC50 [2, 7]: > 5 µM
- IC50 [2, 10]: < 3 µM
- IC50 [3, 8]: < 1 µM

SMILES: CC(C)(C)C[C@H]1N[C@@H](C(=O)NC2CCC(OC(=O)[C@@H](N)Cc3ccccc3)CC2)[C@H](c2cccc(Cl)c2F)[C@@]12C(=O)Nc1cc(Cl)ccc12 (stereo partly drawn) [MI-910]
- IC50 [1, 4]: 9.8 µM
- IC50 [1, 5]: < 3 µM
- IC50 [2, 6]: < 3 µM
- IC50 [2, 7]: 7 µM
- IC50 [2, 10]: < 3 µM
- IC50 [3, 8]: < 1 µM

SMILES: CC(C)(C)C[C@H]1N[C@@H](C(=O)NCC[C@H](O)CO)[C@H](c2cc(Cl)ccn2)[C@@]12C(=O)Nc1cc(Cl)c(F)cc12 [MI-319-35]
- IC50 [1, 11]: > 10 µM
- IC50 [1, 12]: 4.8 ± 0.5 µM
- IC50 [2, 13]: 3.2 ± 0.3 µM
- IC50 [2, 14]: > 10 µM
- IC50 [3, 15]: < 10 µM

SMILES: CC(C)C[C@H](N)C(=O)OC1CCC(NC(=O)[C@@H]2N[C@H](CC(C)(C)C)[C@]3(C(=O)Nc4cc(Cl)ccc43)[C@H]2c2cccc(Cl)c2F)CC1 (stereo partly drawn) [MI-903]
- IC50 [1, 4]: 12.1 µM
- IC50 [1, 5]: < 3 µM
- IC50 [2, 6]: < 3 µM
- IC50 [2, 7]: 3.5 µM
- IC50 [2, 10]: < 3 µM
- IC50 [3, 8]: < 3 µM

SMILES: CC(C)(C)C[C@H]1N[C@@H](C(=O)NC2CCC(OC(=O)CN)CC2)[C@H](c2cccc(Cl)c2F)[C@@]12C(=O)Nc1cc(Cl)ccc12 (stereo partly drawn) [MI-901]
- IC50 [1, 4]: > 10 µM
- IC50 [1, 5]: < 3 µM
- IC50 [2, 6]: < 3 µM
- IC50 [2, 7]: > 5 µM
- IC50 [2, 10]: < 3 µM
- IC50 [3, 8]: < 1 µM

SMILES: CC(C)(C)C[C@H]1N[C@@H](C(=O)NC2CCC(NS(=O)(=O)C(F)(F)F)CC2)[C@H](c2cccc(Cl)c2)[C@@]12C(=O)Nc1cc(Cl)c(F)cc12 (stereo partly drawn) [MI-777]
- IC50 [1, 4]: 7.8 µM
- IC50 [1, 5]: 8.9 µM
- IC50 [2, 6]: 6.6 µM
- IC50 [2, 10]: 9.2 µM
- IC50 [3, 8]: < 5 µM

SMILES: CCCCC(C)(C)C[C@H]1N(C)[C@@H](C(=O)NCC[C@H](O)CO)[C@H](c2cccc(Cl)c2)[C@@]12C(=O)Nc1cc(Cl)c(F)cc12 [MI-728]
- IC50 [1, 16]: 16.9 ± 5.6 µM
- IC50 [1, 17]: 4 ± 0.8 µM
- IC50 [2, 18]: 2.1 ± 0.1 µM
- IC50 [2, 19]: 7.1 ± 2 µM
- IC50 [3, 9]: < 5 µM
